Results on 6 molecules are retold here after patent publication US20240344241A1, “PROTEINACEOUS MOLECULES AND USES THEREFOR” (THE UNIVERSITY OF QUEENSLAND, priority 2021, published 2024).

Like-named read-outs stand apart in the source and are kept apart here. Bridge positions count the residues as written; N and C are the ends. Peptide text beside a SMILES is read from it. Some results are limits rather than exact numbers.

For one assay, the target named is T1, bovine trypsin (Bos taurus, UniProt P00760).
T1 sequence (P00760 24-246): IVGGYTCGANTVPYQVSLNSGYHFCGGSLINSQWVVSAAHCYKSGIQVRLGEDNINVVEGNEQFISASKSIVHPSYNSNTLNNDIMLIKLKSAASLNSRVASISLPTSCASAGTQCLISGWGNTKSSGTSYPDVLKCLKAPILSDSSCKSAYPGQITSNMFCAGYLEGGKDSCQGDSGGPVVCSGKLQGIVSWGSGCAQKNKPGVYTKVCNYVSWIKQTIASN
The assay can be described thus: Surface plasmon resonance binding to trypsin. On the technique in general: SPR reads the build-up and loss of mass on a sensor chip optically.

In assay [1] the target is T2, biotinylated human β-FXIIa (Homo sapiens, UniProt P00748).
T2 construct: purchased Molecular Innovations
Nature of the assay: Surface plasmon resonance binding to FXIIa. On the procedure:
Binding kinetics of each peptide towards biotinylated human β-FXIIa (Molecular Innovations) and non-labelled zymogen FXII (Haematologic Technologies) were determined using a Biacore T200 machine (Cytiva). For β-FXIIa binding measurements, the running buffer was HBS-EP+(10 mM HEPES, 150 mM NaCl, 3 mM EDTA and 0.05% (v/v) surfactant P20, pH 7.4). Biotinylated β-FXIIa was immobilized on a Sensor Chip CAP (Cytiva) using Biotin CAPture Reagent (Cytiva). A series of concentrations of each peptide were injected as analyte and the binding kinetics were modelled using a 1:1 binding model. Regeneration of sensor surface was performed after each measurement cycle. For FXII binding measurements, the running buffer was PBST (137 mM NaCl, 2.7 mM KCl, 10 mM Na2HPO4, 1.8 mM KH2PO4, 0.05% Tween-20). Non-labelled FXII was immobilized on a Sensor Chip CM5 (Cytiva) using Amine Coupling Kit (Cytiva), achieving a final immobilization level of 2500 RU. Each peptide was flowed through immobilized FXII at 5 μM for 60 s and allowed dissociation for 150 s.

In a further assay the target is T3, Human β-FXIIa (Homo sapiens, UniProt P00748).
T3 construct: Human β-FXIIa was obtained from Molecular Innovations, together with human FXa, human FXIa, human α-thrombin, and human plasma kallikrein; purchased Molecular Innovations; host or cells: purified from human plasma
Nature of the assay: FXIIa competitive inhibition assay, colorimetric substrate Ac-QRFR-pNA. The assay is classed as biochemical. On the procedure: The activity of acyclic and cyclic MCoFx1-5 and analogues thereof was assessed in competitive inhibition assays, as previously described in Swedberg et al. (2016) J Med Chem, 59: 7287-7292. Human β-FXIIa was obtained from Molecular Innovations, together with human FXa, human FXIa, human α-thrombin, and human plasma kallikrein. Human cationic trypsin and human plasmin were obtained from Sigma-Aldrich, and recombinant human matriptase was sourced from R&D Systems. Recombinant human urokinase (uPA) and recombinant human tissue plasminogen activator (tPA) were expressed in Expi293 cells, as previously described in Li et al. (2019) Chembiochem, 20: 46-50. FXIIa inhibition assays were performed in clear, low-binding 96-well plates using 250 μL (final volume) of assay buffer (0.1 M Tris-HCl pH 8.0, 0.1 M NaCl, 10 mM CaCl2 and 0.005% Triton X-100). Inhibitors were serially diluted and incubated with 10 nM FXIIa at room temperature to reach equilibrium. After adding 100 μM Ac-QRFR-pNA substrate (KM=162 μM), enzymatic activity was measured by monitoring release of the pNA moiety using a TECAN infinite M1000 Pro plate reader (A=405 nm, reading interval, 10 s; assay time course, 7 min). Assays were conducted in three times in duplicate. Substrate kinetic constants (Michaelis-Menten) and inhibition constants (Morrison K) were determined by non-linear regression using Prism 7 (GraphPad). Selectivity assays with off-target proteases were performed in a similar way, except that different concentrations of enzyme and substrate were used, as indicated in Table 16. For assays using a fluorescent substrate (peptide-4-methylcoumaryl-7-amide, MCA), black low-binding 96-well plates were used and activity was measured using a TECAN infinite M1000 pro plate reader (λex 360 nm, λem 460 nm, reading interval, 30 s; assay time course, 5-30 min).

[2] abbreviates: Table 8, cyclic form, read-out: KD (nM) Trypsin Cyclic.
[3] abbreviates: Table 7, FXIIa, cyclic form of the peptide, read-out: Ki (nM) Cyclic.
[4] abbreviates: Table 8, cyclic form, read-out: KD (nM) FXIIa Cyclic.

T3 sequence (P00748 373-615 limits assumed, other chains not shown): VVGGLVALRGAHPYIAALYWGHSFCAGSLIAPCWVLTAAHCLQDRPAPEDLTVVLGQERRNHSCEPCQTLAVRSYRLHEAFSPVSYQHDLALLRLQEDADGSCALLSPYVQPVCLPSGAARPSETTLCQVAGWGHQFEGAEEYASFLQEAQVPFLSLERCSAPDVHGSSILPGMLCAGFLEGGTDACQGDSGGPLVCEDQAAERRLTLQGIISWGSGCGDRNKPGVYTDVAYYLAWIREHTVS
T2 sequence (P00748 373-615 limits assumed, other chains not shown): as above

Consider `CC[C@H](C)[C@@H]1NC(=O)[C@@H]2CSSC[C@H](NC(=O)[C@H](CCCNC(=N)N)NC(=O)CNC(=O)CNC(=O)[C@@H](N)CC(=O)O)C(=O)N3CCC[C@H]3C(=O)N[C@@H](CCCNC(=N)N)C(=O)N[C@@H](CC(C)C)C(=O)N[C@@H](CC(C)C)C(=O)N[C@@H](CCCNC(=N)N)C(=O)N[C@@H](Cc3c[nH]c4ccccc34)C(=O)N[C@H]3CSSC[C@H](NC1=O)C(=O)N[C@@H](C)C(=O)N[C@@H](CCCNC(=N)N)C(=O)NCC(=O)NCC(=O)N[C@@H](CC(C)C)C(=O)N[C@H](C(=O)NCC(=O)N[C@@H](CO)C(=O)NCC(=O)N[C@@H](CO)C(=O)O)CSSC[C@H](NC(=O)[C@H](CC(=O)O)NC(=O)[C@H](CO)NC(=O)[C@H](CC(=O)O)NC(=O)[C@H](CCCNC(=N)N)NC(=O)[C@H](CCCNC(=N)N)NC3=O)C(=O)N1CCC[C@H]1C(=O)NCC(=O)N[C@@H](C)C(=O)N2` [MCoFx3 acyclic] (H-DGGRCPRLLRWCRRDSDCPGACICARGGLCGSGS-OH; disulfide 5-22, 12-24, 18-30), for which the Kd (commonly the concentration at which binding is half-saturated) at bovine trypsin worked out at 2.39 nM; in assay [1], 167 ± 40 nM. On Human β-FXIIa, the Ki – broadly, a measure of affinity in units of concentration, obtained from inhibition or displacement – stood at 525 ± 30 nM.
Take `CC[C@H](C)[C@@H]1NC(=O)[C@@H]2CSSC[C@H](NC(=O)[C@@H](NC(=O)CNC(=O)CNC(=O)[C@@H](N)CC(=O)O)C(C)C)C(=O)N3CCC[C@H]3C(=O)N[C@@H](CCCNC(=N)N)C(=O)N[C@@H](C(C)C)C(=O)NCC(=O)N[C@@H](Cc3c[nH]c4ccccc34)C(=O)N[C@@H](CCCNC(=N)N)C(=O)N[C@H]3CSSC[C@H](NC1=O)C(=O)N[C@@H](Cc1ccc(O)cc1)C(=O)N1CCC[C@H]1C(=O)N[C@@H]([C@@H](C)O)C(=O)N[C@@H](CCCCN)C(=O)N[C@@H](Cc1c[nH]c4ccccc14)C(=O)N[C@H](C(=O)NCC(=O)N[C@@H](CO)C(=O)NCC(=O)N[C@@H](CO)C(=O)O)CSSC[C@H](NC(=O)[C@H](CC(=O)O)NC(=O)[C@H](CO)NC(=O)[C@H](CC(=O)O)NC(=O)[C@H](CCCNC(=N)N)NC(=O)[C@H](CCCNC(=N)N)NC3=O)C(=O)N1CCC[C@H]1C(=O)NCC(=O)N[C@@H](C)C(=O)N2` [MCoFx4 acyclic] (H-DGGVCPRVGWRCRRDSDCPGACICYPTKWCGSGS-OH; disulfide 5-22, 12-24, 18-30): the figures for the Kd (on bovine trypsin; in assay [1]) were 15.1 nM and 73.8 ± 6.3 nM, respectively. Moreover, the Ki at Human β-FXIIa came out at 17 ± 0.9 nM.
As for `CC[C@H](C)[C@@H]1NC(=O)CNC(=O)CNC(=O)[C@H](CC(=O)O)NC(=O)[C@H](CO)NC(=O)CNC(=O)[C@H](CO)NC(=O)CNC(=O)[C@@H]2CSSC[C@@H]3NC(=O)[C@H](CC(=O)O)NC(=O)[C@H](CO)NC(=O)[C@H](CC(=O)O)NC(=O)[C@H](CCCNC(=N)N)NC(=O)[C@H](CCCNC(=N)N)NC(=O)[C@@H]4CSSC[C@H](NC(=O)[C@H]([C@@H](C)CC)NC(=O)[C@H](CSSC[C@H](NC1=O)C(=O)N1CCC[C@H]1C(=O)N[C@@H](CCCNC(=N)N)C(=O)N[C@@H]([C@@H](C)CC)C(=O)N[C@@H](CC(C)C)C(=O)N[C@@H](C(C)C)C(=O)N[C@@H](Cc1ccc(O)cc1)C(=O)N4)NC(=O)[C@H](C)NC(=O)CNC(=O)[C@@H]1CCCN1C3=O)C(=O)N[C@@H]([C@@H](C)CC)C(=O)N[C@@H](CCCNC(=N)N)C(=O)N[C@@H](CCCNC(=N)N)C(=O)N[C@@H]([C@@H](C)O)C(=O)N[C@@H](Cc1ccc(O)cc1)C(=O)N2` [MCoFx2 cyclic] (cyclo(ACICIRRTYCGSGSDGGICPRILVYCRRDSDCPG); disulfide 2-19, 4-26, 10-32), the Kd on bovine trypsin (setting [2]) is under 0.1 nM; in assay [1] (Table 7, FXIIa, cyclic form of the peptide, read-out: KD (nM) Cyclic), 10 nM. The Ki at Human β-FXIIa (setting [3]) was 12 ± 0.7 nM.
As for `CC[C@H](C)[C@@H]1NC(=O)[C@@H]2CSSC[C@@H]3NC(=O)[C@H](CCCNC(=N)N)NC(=O)CNC(=O)CNC(=O)[C@H](CC(=O)O)NC(=O)[C@H](CO)NC(=O)CNC(=O)[C@H](CO)NC(=O)CNC(=O)[C@@H]4CSSC[C@H](NC(=O)[C@H](CC(=O)O)NC(=O)[C@H](CO)NC(=O)[C@H](CC(=O)O)NC(=O)[C@H](CCCNC(=N)N)NC(=O)[C@H](CCCNC(=N)N)NC(=O)[C@H](CSSC[C@H](NC1=O)C(=O)N[C@@H](C)C(=O)N[C@@H](CCCNC(=N)N)C(=O)NCC(=O)NCC(=O)N[C@@H](CC(C)C)C(=O)N4)NC(=O)[C@H](Cc1c[nH]c4ccccc14)NC(=O)[C@H](CCCNC(=N)N)NC(=O)[C@H](CC(C)C)NC(=O)[C@H](CC(C)C)NC(=O)[C@H](CCCNC(=N)N)NC(=O)[C@@H]1CCCN1C3=O)C(=O)N1CCC[C@H]1C(=O)NCC(=O)N[C@@H](C)C(=O)N2` [MCoFx3 cyclic] (cyclo(ACICARGGLCGSGSDGGRCPRLLRWCRRDSDCPG); disulfide 2-19, 4-26, 10-32), the Kd at bovine trypsin (setting [2]) came out at 2.72 nM; in assay [1] (setting [4]), 22.8 ± 1.6 nM. Further, at Human β-FXIIa (setting [3]), the Ki came out at 75 ± 3 nM.
The matching figures for `CC[C@H](C)[C@@H]1NC(=O)[C@@H]2CSSC[C@@H]3NC(=O)[C@H](C(C)C)NC(=O)CNC(=O)CNC(=O)[C@H](CC(=O)O)NC(=O)[C@H](CO)NC(=O)CNC(=O)[C@H](CO)NC(=O)CNC(=O)[C@@H]4CSSC[C@H](NC(=O)[C@H](CC(=O)O)NC(=O)[C@H](CO)NC(=O)[C@H](CC(=O)O)NC(=O)[C@H](CCCNC(=N)N)NC(=O)[C@H](CCCNC(=N)N)NC(=O)[C@H](CSSC[C@H](NC1=O)C(=O)N[C@@H](Cc1ccc(O)cc1)C(=O)N1CCC[C@H]1C(=O)N[C@@H]([C@@H](C)O)C(=O)N[C@@H](CCCCN)C(=O)N[C@@H](Cc1c[nH]c5ccccc15)C(=O)N4)NC(=O)[C@H](CCCNC(=N)N)NC(=O)[C@H](Cc1c[nH]c4ccccc14)NC(=O)CNC(=O)[C@H](C(C)C)NC(=O)[C@H](CCCNC(=N)N)NC(=O)[C@@H]1CCCN1C3=O)C(=O)N1CCC[C@H]1C(=O)NCC(=O)N[C@@H](C)C(=O)N2` [MCoFx4 cyclic] (cyclo(ACICYPTKWCGSGSDGGVCPRVGWRCRRDSDCPG); disulfide 2-19, 4-26, 10-32): 4.09 nM, 14.4 ± 1.1 nM and 5.5 ± 0.5 nM.
Take `CC[C@H](C)[C@H](NC(=O)CNC(=O)CNC(=O)[C@@H](N)CC(=O)O)C(=O)N[C@H]1CSSC[C@@H]2NC(=O)[C@H](C)NC(=O)CNC(=O)[C@@H]3CCCN3C(=O)[C@@H]3CSSC[C@@H](C(=O)NCC(=O)N[C@@H](CO)C(=O)NCC(=O)N[C@@H](CO)C(=O)O)NC(=O)[C@H](Cc4ccc(O)cc4)NC(=O)[C@H]([C@@H](C)O)NC(=O)[C@H](CCCNC(=N)N)NC(=O)[C@H](CCCNC(=N)N)NC(=O)[C@H]([C@@H](C)CC)NC(=O)[C@H](CSSC[C@H](NC(=O)[C@H](Cc4ccc(O)cc4)NC(=O)[C@H](C(C)C)NC(=O)[C@H](CC(C)C)NC(=O)[C@H]([C@@H](C)CC)NC(=O)[C@H](CCCNC(=N)N)NC(=O)[C@@H]4CCCN4C1=O)C(=O)N[C@@H](CCCNC(=N)N)C(=O)N[C@@H](CCCNC(=N)N)C(=O)N[C@@H](CC(=O)O)C(=O)N[C@@H](CO)C(=O)N[C@@H](CC(=O)O)C(=O)N3)NC(=O)[C@H]([C@@H](C)CC)NC2=O` [MCoFx2 acyclic] (H-DGGICPRILVYCRRDSDCPGACICIRRTYCGSGS-OH; disulfide 5-22, 12-24, 18-30): the Kd at bovine trypsin is under 0.1 nM; in assay [1], 45.4 ± 2.9 nM. This molecule gave a Ki on Human β-FXIIa of 73 ± 3 nM.
